Where “and” joins values, the source holds several entries; their conditions need not be identical. Equal entries are not always repeated.
Columns and labels:
Conditions in all cases: incubation time: 72 h
CAL-148 [1] = assay: normalised viability (% of control), CellTiter-Blue; higher = more viable cells (about 100 = DMSO control)
Method: (§1)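 DSRT, CellTiter-Blue viability, 72 h incubation. Signal is normalised to DMSO and benzethonium chloride controls. Value is the normalised response at dose 7.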

CAL-51 [2] = assay: as above
Method: as §1

CAL-85-1 [3] = assay: as above
Method: as §1

DU-4475 [4] = assay: as above
Method: as §1

HDQ-P1 [5] = assay: as above
Method: as §1

MDA-MB-453 [6] = assay: as above
Method: as §1

BT-474 = assay: normalised response (% of control), CellTiter-Glo; higher = more viable cells (100 = DMSO, 0 = benzethonium chloride kill control)
Outline: (§2)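 Breast cancer cell lines, seeded at 20 µl suspension per well, were incubated for 72 h in 384-well plates containing compound at 5 concentrations. These concentrations rose in 10-fold steps over a 10,000-fold range set for each compound. CellTox Green fluorescence (485/520 nm) was read, then CellTiter-Glo luminescence after 10 min at room temperature, and each plate was normalised to 0.1 % DMSO (100) and a positive kill control (0). Values are normalised signals, each at one concentration.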

BT-549 = assay: as above
Outline: as §2

CAL-120 = assay: as above
Outline: as §2

CAL-148 [7] = assay: as above
Outline: as §2

CAL-51 [8] = assay: as above
Outline: as §2

CAL-85-1 [9] = assay: as above
Outline: as §2

DU-4475 [10] = assay: as above
Outline: as §2

HCC1143 = assay: as above
Outline: as §2

HCC1599 = assay: as above
Outline: as §2

HCC1937 = assay: as above
Outline: as §2

HDQ-P1 [11] = assay: as above
Outline: as §2

Hs578T = assay: as above
Outline: as §2

MCF-10A = assay: as above
Outline: as §2

MDA-MB-231 = assay: as above
Outline: as §2

MDA-MB-436 = assay: as above
Outline: as §2

MDA-MB-453 [12] = assay: as above
Outline: as §2

MDA-MB-468 = assay: as above
Outline: as §2

MFM-223 = assay: as above
Outline: as §2

SK-BR-3 = assay: as above
Outline: as §2

| Structure (SMILES) | normalised viability (CAL-148 [1]) | normalised viability (CAL-51 [2]) | normalised viability (CAL-85-1 [3]) | normalised viability (DU-4475 [4]) | normalised viability (HDQ-P1 [5]) | normalised viability (MDA-MB-453 [6]) | further results |
| --- | --- | --- | --- | --- | --- | --- | --- |
| COc1nc(N)nc2c1ncn2[C@@H]1O[C@H](CO)[C@@H](O)[C@@H]1O [Nelarabine] (1000 nM) | 102% and 122% | 96.7% and 110% | 101% and 98.4% | 103% and 110% | 76.9% and 92.7% | 101% and 89.3% |  |
| CCN(CC)CCNC(=O)c1c(C)[nH]c(/C=C2\C(=O)Nc3ccc(F)cc32)c1C [Sunitinib] (100 nM) | 94.3% and 116% | 115% and 98.3% | 93.3% and 99.1% | 109% and 86.6% | 91.3% and 100% | 94% and 94.8% |  |
| C[C@]12C=CC(=O)C=C1CC[C@@H]1[C@@H]2[C@@H](O)C[C@@]2(C)[C@H]1CC[C@]2(O)C(=O)CO [Prednisolone] (1000 nM) | 109% | 90.3% | 101% | 119% | 113% | 76.9% |  |
| Cc1nc(Nc2ncc(C(=O)Nc3c(C)cccc3Cl)s2)cc(N2CCN(CCO)CC2)n1 [Dasatinib] (100 nM) | 109% and 93.3% | 47.8% and 48.7% | 56.4% and 53% | 95.1% and 108% | 15.8% and 11.4% | 88.2% and 94.5% |  |
| Cc1ccc(Nc2nccc(N(C)c3ccc4c(C)n(C)nc4c3)n2)cc1S(N)(=O)=O [Pazopanib] (1000 nM) | 85.6% | 84.2% | 87.6% | 107% | 99.8% | 68.8% |  |
| O=C(Nc1c[nH]nc1-c1nc2ccc(CN3CCOCC3)cc2[nH]1)NC1CC1 [AT9283] (1000 nM) | 67.3% | 51.3% | 55.4% | 10.3% | 50.3% | 42% | normalised response (BT-474): 58.6%; normalised response (BT-549): 27.8%; normalised response (CAL-120): 46.9%; normalised response (CAL-148 [7]): 86.1%; normalised response (CAL-51 [8]): 83%; normalised response (CAL-85-1 [9]): 59.6%; normalised response (DU-4475 [10]): 72.4%; normalised response (HCC1143): 60.8%; normalised response (HCC1599): 74.4%; normalised response (HCC1937): 73.7%; normalised response (HDQ-P1 [11]): 50.8%; normalised response (Hs578T): 54.8%; normalised response (MCF-10A): 46.2%; normalised response (MDA-MB-231): 42.4%; normalised response (MDA-MB-436): 99.5%; normalised response (MDA-MB-453 [12]): 185%; normalised response (MDA-MB-468): 31.1%; normalised response (MFM-223): 75.5%; normalised response (SK-BR-3): 70.8% |
| CC[C@@]1(O)C(=O)OCc2c1cc1n(c2=O)Cc2cc3c(CN(C)C)c(O)ccc3nc2-1 [Topotecan] (100 nM) | 45.5% | 73.3% | 85.7% | 61.2% | 102% | 90.4% |  |
| C[C@]12O[C@H](C[C@]1(O)CO)n1c3ccccc3c3c4c(c5c6ccccc6n2c5c31)CNC4=O [Lestaurtinib] (100 nM) | 104% | 110% | 99.5% | 79.6% | 87.8% | 75.1% |  |
| CCC/C=C/C=C/C(=O)O[C@H]1/C(=C/C(=O)OC)C[C@H]2C[C@H]([C@@H](C)O)OC(=O)C[C@H](O)C[C@@H]3C[C@H](OC(C)=O)C(C)(C)[C@](O)(C[C@@H]4C/C(=C/C(=O)OC)C[C@H](/C=C/C(C)(C)[C@]1(O)O2)O4)O3 [Bryostatin 1] (10 nM) | 98.1% | 109% | 98.7% | 76.5% | 118% | 92.2% |  |
| CO[C@@H](C(=O)N1Cc2[nH]nc(NC(=O)c3ccc(N4CCN(C)CC4)cc3)c2C1)c1ccccc1 [Danusertib] (1000 nM) | 47.2% | 44.9% | 50.8% | 46.3% | 45.6% | 41.7% |  |
| O=C(CCBr)N1CCN(C(=O)CCBr)CC1 [Pipobroman] (1000 nM) | 95.5% | 114% | 88.8% | 98.1% | 91.2% | 93.4% |  |
| Cc1c(CN2CCN(C(=O)[C@H](C)O)CC2)sc2c(N3CCOCC3)nc(-c3cnc(N)nc3)nc12 [GDC-0980] (1000 nM) | 15.3% | 16.5% | 27.1% | 50.2% | 24.7% | 8.12% |  |
| Nc1cccc2c1CN(C1CCC(=O)NC1=O)C2=O (centres undefined) [Lenalidomide] (1000 nM) | 95.3% and 104% | 103% and 100% | 80% and 74.3% | 110% and 88.9% | 110% and 96.9% | 85.6% and 104% |  |
| O=C1c2c(O)ccc(O)c2C(=O)c2c(NCCNCCO)ccc(NCCNCCO)c21 [Mitoxantrone] (100 nM) | 25.1% | 31.2% | 63.4% | 13% | 74.2% | 71.3% |  |
| COc1cc(CCc2cc(NC(=O)c3ccc(N4CC(C)NC(C)C4)cc3)n[nH]2)cc(OC)c1 (centres undefined) [AZD4547] (100 nM) | 106% | 101% | 74.9% | 84.3% | 106% | 78.1% |  |

Reference: the supplement of paper PMC4862054
